Data taken from the Deep4Chem optical property database.
Values joined by “and” are separate entries in the source; they are usually repeats but may differ in a detail not shown here. Identical values can stand only once. Blank lines part the entries; values can stand above or below the compound they belong to.

Experiment: solvent given as SMILES

absorption maximum (in ClC(Cl)Cl): 598 nm
Compound: Clc1cc(Cl)c([C](c2c(Cl)cc(Cl)cc2Cl)c2c(Cl)cc(-n3c4ccccc4c4ccccc43)cc2Cl)c(Cl)c1

absorption maximum (in CO): 369 nm
Compound: Brc1cnc(-c2ccc(N(c3ccccc3)c3ccccc3)cc2)s1

absorption maximum (in CC1CCCCC1): 386 nm
absorption maximum (in CC#N): 386 nm
Compound: C(=C\c1c2ccccc2cc2ccccc12)/c1cnc2ccccc2c1

absorption maximum (in CCCCCC): 607 nm
Compound: CC(C)[Si](C#Cc1c2nsnc2c(C#C[Si](C(C)C)(C(C)C)C(C)C)c2nc3c(ccc4ccccc43)nc12)(C(C)C)C(C)C

absorption maximum (in ClCCl): 712 nm
Compound: F[B-]1(F)n2c(c3ccccc3c2-c2ccccc2)N=C2c3ccccc3C(c3ccccc3)=[N+]21

absorption maximum (in CCCCCC): 621 nm
absorption maximum (in CCCCCCCCO): 625 nm
absorption maximum (in CCOC(C)=O): 620 nm
absorption maximum (in CN(C)C=O): 626 nm
absorption maximum (in ClCCl): 618 nm
Compound: CC1=CC(C)=[N+]2C1=Cc1c3ccccc3c(C#Cc3cccs3)n1[B-]2(F)F

absorption maximum (in CC#N): 340 nm
absorption maximum (in CCCCCC): 337 nm
absorption maximum (in CCO): 343 nm
absorption maximum (in CCOC(C)=O): 340 nm
absorption maximum (in CO): 343 nm
absorption maximum (in OCC(F)(F)F): 344 nm
Compound: COc1ccc2cc3c(C)cc(=O)oc3cc2c1

absorption maximum (in C1CCCCC1): 293.94 nm
Compound: Cc1cccc2ccccc12

absorption maximum (in C1COCCO1): 416 nm
Compound: O=C1OC(c2ccccc2)=C/C1=C\c1ccc([N+](=O)[O-])cc1

absorption maximum (in CS(C)=O): 552 nm
Compound: CCN1/C(=C/C=C/C2=[N+](C)c3ccccc3C2(C)C)C(C)(C)c2ccccc21

absorption maximum (in C1CCCCC1): 365 nm
Compound: C1=C(c2ccccc2)B(c2ccccc2)Nc2c1ccc1ccccc21

absorption maximum (in CCO): 646 nm
absorption maximum (in CO): 643 nm
absorption maximum (in CS(C)=O): 652 nm
absorption maximum (in O): 639 nm
Compound: CN1/C(=C/C=C(/C=C/c2sc3ccccc3[n+]2C)c2ccc(C(F)(F)F)cc2)Sc2ccccc21

absorption maximum (in ClCCl): 376 nm
Compound: C[Si]1(C)O[Si](C)(C)c2cc3c(-c4ccccc4)c4cc(Cl)ccc4nc3cc21

absorption maximum (in C1CCOC1): 352 nm
Compound: c1ccc(-n2c(-c3ccccc3-n3c4ccccc4c4ccccc43)nc3ccccc32)cc1

absorption maximum (in O): 430 nm
Compound: CC(C)c1cc(N(C)C)c(C#N)c2c1-c1cccc3cccc-2c13

absorption maximum (in CC#N): 311.5 nm and 312 nm
absorption maximum (in CO): 311.5 nm
Compound: c1ccc(-c2nc(-c3ccccc3)c(-c3ccccc3)[nH]2)cc1

absorption maximum (in ClCCl): 435 nm
Compound: Cc1ccc(C2=Nc3cccc4[n+]3[B-](c3ccccc3)(N2)NC(c2ccc(C)cc2)=N4)cc1

The next lines start with the compound.

Compound: N#Cc1cc(-c2ccc(/C=C/c3ccc(N(c4ccccc4)c4ccccc4)cc3)c(C#N)c2)ccc1/C=C/c1ccc(N(c2ccccc2)c2ccccc2)cc1
absorption maximum (in ClCCl): 428 nm

Compound: CCC12C(=C3C(=C4c5ccc(-c6ccc(C(C)=O)cc6)cc5S(=O)(=O)C41CC)C(F)(F)C(F)(F)C3(F)F)c1ccc(-c3ccc(C(C)=O)cc3)cc1S2(=O)=O (stereo not drawn)
absorption maximum (in C1COCCO1): 456 nm

Compound: O=S(=O)([O-])c1ccccc1/C=C/c1ccc(-c2nnc(-c3ccc(/C=C/c4ccccc4S(=O)(=O)[O-])cc3)o2)cc1
absorption maximum (in C1CCOC1): 346 nm
absorption maximum (in CC(C)=O): 344 nm
absorption maximum (in CN(C)C=O): 348 nm

Compound: CCC1=C(C)C(=O)n2c1cc1c(C)cc(C)n1c2=O
absorption maximum (in CC#N): 409 nm
absorption maximum (in CC(C)=O): 412 nm
absorption maximum (in CO): 420 nm
absorption maximum (in CS(C)=O): 420 nm
absorption maximum (in ClC(Cl)Cl): 420 nm
absorption maximum (in c1ccccc1): 423 nm

Compound: CCOC(=O)/C(C)=C/C1=C(c2ccc(C)cc2)C2=Nc3c(-c4ccc(C)cc4)c(Br)c(-c4ccc(C)cc4)n3[B-](F)(F)[N+]2=C1c1ccc(C)cc1
absorption maximum (in ClC(Cl)Cl): 661 nm

Compound: CCN1CCN(c2ccc(/N=N/c3cc(C(F)(F)F)cc(C(F)(F)F)c3)cc2)CC1
absorption maximum (in CCOC(C)=O): 427 nm

Compound: CO
absorption maximum (in CCCCCC): 177 nm

Compound: CCCC1=Cc2nc1ccc1[nH]c(cc1CCC)c1nc(c3ccccc3c3[nH]c2cc3CCC)C(CCC)=C1
absorption maximum (in Cc1ccccc1): 762 nm

Compound: c1ccc(-c2ccc(-c3ccc(-c4cc(-c5ccc(-c6ccc(-c7ccccc7)cc6)cc5)cc(-c5ccc(-c6ccc(-c7ccccc7)cc6)cc5)c4)cc3)cc2)cc1
absorption maximum (in C1COCCO1): 306.5 nm

Compound: COc1ccccc1C1=[N+]2C(=Cc3c4c(c(-c5ccccc5OC)n3[B-]2(F)F)C2CCC4CC2)C2=C1C1CCC2CC1
absorption maximum (in ClCCl): 550 nm

Compound: CC(C)c1cccc(C(C)C)c1N1C(=O)c2cc(Cl)c3c4c(Cl)cc5c6c(cc(Cl)c(c7c(Cl)cc(c2c37)C1=O)c64)C(=O)N(c1c(C(C)C)cccc1C(C)C)C5=O
absorption maximum (in Cc1ccccc1): 523 nm

Compound: COc1ccc(C2=C(Br)C(c3ccccc3)=[N+]3C2=Nc2c(-c4ccc(OC)cc4)c(Br)c(-c4ccccc4)n2[B-]3(F)F)cc1
absorption maximum (in Cc1ccccc1): 654 nm

Compound: c1ccc2c(c1)-c1ccccc1C21c2ccccc2N(c2ccc(-c3nc([C@]45CC6CC(C[C@@H](C6)C4)C5)nc([C@]45C[C@H]6C[C@@H](C[C@H](C6)C4)C5)n3)cc2)c2ccccc21
absorption maximum (in Cc1ccccc1): 380.1 nm

Compound: CC1=C(C2=C(C)C(C)=[N+]3C2=Cc2cc(C)c(C)n2[B-]3(F)F)C2=Cc3cc(C)c(C)n3[B-](F)(F)[N+]2=C1C
absorption maximum (in ClCCl): 557 nm

Compound: CN(C)c1cc2oc3cc(N(C)C)c(F)cc3c(=O)c2cc1F
absorption maximum (in CCO): 378 nm

Compound: O=S1(=O)c2ccccc2C2(c3cc(-c4ccc(N(c5ccccc5)c5ccccc5)cc4)ccc3-c3ccc(-c4ccc(N(c5ccccc5)c5ccccc5)cc4)cc32)c2ccccc21
absorption maximum (in ClCCl): 380 nm

Compound: Cc1nc(-c2ccc(N3c4ccccc4C(c4ccccc4)(c4ccccc4)c4ccccc43)cc2)cc(-c2ccc(N3c4ccccc4C(c4ccccc4)(c4ccccc4)c4ccccc43)cc2)n1
absorption maximum (in Cc1ccccc1): 370 nm

Compound: CNC1=C2C=CC=[N+]2[B-](F)(F)n2cccc21
absorption maximum (in C1CCCCC1): 418.5 nm
absorption maximum (in CC(C)=O): 395.5 nm
absorption maximum (in CCO): 397 nm
absorption maximum (in CCOC(C)=O): 398.5 nm
absorption maximum (in CO): 394.5 nm
absorption maximum (in OCC(F)(F)F): 393 nm

Compound: Cc1cc(C)c(C2=C3C=C(c4ccc(C(C)(C)C)cc4)C(c4ccc(C(C)(C)C)cc4)=[N+]3[B-](F)(F)n3c2cc(-c2ccc(C(C)(C)C)cc2)c3-c2ccc(C(C)(C)C)cc2)c(C)c1
absorption maximum (in C1CCCCC1): 602 nm
absorption maximum (in C1CCOC1): 602 nm
absorption maximum (in CC#N): 592 nm
absorption maximum (in Cc1ccccc1): 606 nm
absorption maximum (in ClCCl): 599 nm

Compound: CC(C)(C)c1ccc2c(c1)Sc1cc(C(C)(C)C)ccc1N2c1ccc2c(ccc3nc4ccc5cc(N6c7ccc(C(C)(C)C)cc7Sc7cc(C(C)(C)C)ccc76)ccc5c4nc32)c1
absorption maximum (in C1CCCCC1): 451 nm
absorption maximum (in C1CCOC1): 452 nm
absorption maximum (in Cc1ccccc1): 451 nm

Compound: N#Cc1nc(-n2c3ccccc3c3ccccc32)cc(-n2c3ccccc3c3ccccc32)n1
absorption maximum (in Cc1ccccc1): 371 nm

Compound: CC(C)(C)c1ccc2c(c1)c1cc(C(C)(C)C)ccc1n2-c1cccc2c1Oc1c(-c3nc(-c4ccccc4)nc(-c4ccccc4)n3)cccc1C2(C)C
absorption maximum (in Cc1ccccc1): 346 nm

Compound: CCCCCCCCOc1ccc(C2=C3C(C)=CC(C)=[N+]3[B-](F)(F)n3c(C)cc(C)c32)cc1
absorption maximum (in ClCCl): 500 nm

Compound: C(#Cc1ccc(-n2c3ccccc3c3ccccc32)cc1)c1ccc(-c2nc(-c3ccc(C#Cc4ccc(-n5c6ccccc6c6ccccc65)cc4)cc3)nc(-c3ccc(C#Cc4ccc(-n5c6ccccc6c6ccccc65)cc4)cc3)n2)cc1
absorption maximum (in ClCCl): 361 nm
